Each structure is given as a SMILES string. Activity calls are given as the source filed them. The calls are words filed in the database; no cut-off is given here.

Series [1] concerns HepG2. Description: Cytotoxicity against human HepG2 cells assessed as reduction in cell viability after 24 hrs by MTT assay. The format is cell-based. As to conditions: HepG2, 24 h. On the technique in general: Formazan colour is commonly taken as a measure of viable cells.
Series [2] concerns the target Glycogen synthase kinase-3 beta (Mus musculus) (UniProt Q9WV60). Description: Inhibition of GSK-3beta in mouse N2A cells assessed as reduction in tau hyperphosphorylation at Ser396 residues at 10 uM after 6 hrs by Western blot analysis. The format is cell-based. A general note: In western blotting, separated proteins are transferred to a membrane and probed.
The test system of series [3] is SH-SY5Y. Description: Cytotoxicity against human SH-SY5Y cells assessed as reduction in cell viability after 48 hrs by MTT assay. The format is cell-based.
Series [4] has as its target T1, Acetylcholinesterase (Homo sapiens, UniProt P22303). Description: Mixed/non-competitive inhibition of human AChE using varying levels of acetylthiocholine iodide as substrate at 1 to 20 nM incubated for 20 mins by Lineweaver-Burk plot analysis.
For series [5], the system named is N2a. Description: Effect on total tau protein level in mouse N2A cells at 10 to 30 uM after 6 hrs by Western blot analysis. The format is cell-based.
Series [6] has as its system Mus musculus. Description: Cognition enhancing effect in scopolamine-induced ICR mouse assessed as decrease in distance to target at 15 mg/kg, po administered 30 mins prior to scopolamine injection for 10 consecutive days followed by testing on day 11 post 30 mins scopolamine treatment by Morris water maze test. The format is functional, organism-based.
In series [7] the target is Glycogen synthase kinase-3 beta (Homo sapiens, UniProt P49841). Description: Inhibition of recombinant human full length N-terminal GST-tagged GSK-3beta expressed in Sf9 insect cells using prephosphorylated polypeptide as substrate after 30 mins by kinase-Glo reagent based luminescence assay. On the technique in general: Kinase-Glo measures the ATP left after a reaction by luminescence.

In series [8] the target is T1, Acetylcholinesterase. Description: Inhibition of human AChE using acetylthiocholine iodide as substrate incubated for 20 mins followed by substrate addition measured after 2 mins by Ellman's method.
The target of series [9] is Cholinesterase (Homo sapiens, UniProt P06276). Description: Inhibition of human BuChE using butyrylthiocholine iodide as substrate incubated for 20 mins followed by substrate addition measured after 2 mins by Ellman's method.
Series [10] deals with Cholinesterase (Equus caballus, UniProt P81908). Description: Inhibition of horse serum BuChE using butyrylthiocholine iodide as substrate incubated for 5 mins followed by substrate addition measured after 2 mins by Ellman's method.
For series [11], the species on record is Homo sapiens. Description: Selectivity index, ratio of IC50 for human AChE to IC50 for human BuChE.

T1 sequence (P22303 whole entry): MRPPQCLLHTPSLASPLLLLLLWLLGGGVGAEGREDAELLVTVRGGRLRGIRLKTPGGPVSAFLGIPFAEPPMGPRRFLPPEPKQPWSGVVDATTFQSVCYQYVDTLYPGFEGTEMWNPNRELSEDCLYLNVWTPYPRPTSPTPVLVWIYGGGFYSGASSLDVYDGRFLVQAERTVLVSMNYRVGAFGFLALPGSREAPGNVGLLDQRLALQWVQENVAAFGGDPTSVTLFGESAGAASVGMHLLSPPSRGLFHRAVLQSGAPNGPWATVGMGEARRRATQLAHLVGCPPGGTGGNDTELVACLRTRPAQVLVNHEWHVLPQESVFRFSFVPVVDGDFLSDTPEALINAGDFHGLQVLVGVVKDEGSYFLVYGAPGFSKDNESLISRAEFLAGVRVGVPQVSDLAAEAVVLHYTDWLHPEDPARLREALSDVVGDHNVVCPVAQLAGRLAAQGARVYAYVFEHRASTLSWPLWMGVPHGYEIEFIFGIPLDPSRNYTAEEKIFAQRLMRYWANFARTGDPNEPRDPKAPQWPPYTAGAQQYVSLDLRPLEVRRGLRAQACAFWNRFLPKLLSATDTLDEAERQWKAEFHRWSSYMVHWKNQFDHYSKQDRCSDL
Cholinesterase (Homo sapiens, UniProt P06276), sequence (P06276 whole entry): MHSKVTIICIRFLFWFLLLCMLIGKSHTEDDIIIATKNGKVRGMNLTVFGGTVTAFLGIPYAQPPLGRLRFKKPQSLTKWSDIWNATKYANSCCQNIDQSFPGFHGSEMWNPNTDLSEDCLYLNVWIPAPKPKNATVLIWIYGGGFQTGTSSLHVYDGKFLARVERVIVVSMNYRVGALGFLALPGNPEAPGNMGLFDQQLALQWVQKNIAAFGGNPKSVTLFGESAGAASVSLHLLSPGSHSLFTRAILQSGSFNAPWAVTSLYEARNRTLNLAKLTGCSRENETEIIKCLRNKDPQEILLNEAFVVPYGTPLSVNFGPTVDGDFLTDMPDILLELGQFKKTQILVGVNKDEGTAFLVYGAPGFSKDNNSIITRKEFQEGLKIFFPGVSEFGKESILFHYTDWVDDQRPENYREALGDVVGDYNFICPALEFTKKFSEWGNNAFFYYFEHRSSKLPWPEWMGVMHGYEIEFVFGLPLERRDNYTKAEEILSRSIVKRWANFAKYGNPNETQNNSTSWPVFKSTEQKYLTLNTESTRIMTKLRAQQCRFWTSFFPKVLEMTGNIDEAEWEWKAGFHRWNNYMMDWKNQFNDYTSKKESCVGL
Cholinesterase (Equus caballus, UniProt P81908), sequence (P81908 whole entry): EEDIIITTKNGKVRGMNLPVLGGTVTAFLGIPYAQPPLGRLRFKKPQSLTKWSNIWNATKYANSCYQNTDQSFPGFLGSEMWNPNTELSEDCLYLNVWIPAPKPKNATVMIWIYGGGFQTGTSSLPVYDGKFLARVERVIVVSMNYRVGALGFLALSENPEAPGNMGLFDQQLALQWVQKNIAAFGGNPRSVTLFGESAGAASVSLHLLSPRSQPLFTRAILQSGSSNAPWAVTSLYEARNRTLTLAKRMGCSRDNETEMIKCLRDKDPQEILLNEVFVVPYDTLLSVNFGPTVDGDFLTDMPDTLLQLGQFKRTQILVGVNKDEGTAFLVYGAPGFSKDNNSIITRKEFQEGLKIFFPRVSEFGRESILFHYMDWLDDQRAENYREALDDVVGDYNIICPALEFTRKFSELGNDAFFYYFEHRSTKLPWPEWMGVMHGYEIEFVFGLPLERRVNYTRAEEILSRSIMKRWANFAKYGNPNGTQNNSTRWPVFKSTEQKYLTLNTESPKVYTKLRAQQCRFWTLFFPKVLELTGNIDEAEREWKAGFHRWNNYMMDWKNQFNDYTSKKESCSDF
Glycogen synthase kinase-3 beta, sequence (P49841 whole entry): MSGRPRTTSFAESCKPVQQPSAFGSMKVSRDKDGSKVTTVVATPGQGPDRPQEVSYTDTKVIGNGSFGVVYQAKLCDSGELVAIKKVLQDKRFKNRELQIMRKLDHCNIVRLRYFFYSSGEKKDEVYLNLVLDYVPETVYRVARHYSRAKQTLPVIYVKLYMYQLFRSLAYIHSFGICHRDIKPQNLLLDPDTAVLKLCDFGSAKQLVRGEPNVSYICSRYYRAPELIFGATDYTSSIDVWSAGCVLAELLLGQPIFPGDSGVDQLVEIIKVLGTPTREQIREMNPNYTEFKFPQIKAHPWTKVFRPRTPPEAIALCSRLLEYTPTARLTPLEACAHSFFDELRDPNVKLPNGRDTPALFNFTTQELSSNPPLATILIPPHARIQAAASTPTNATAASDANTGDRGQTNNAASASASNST
Glycogen synthase kinase-3 beta (Mus musculus), sequence (Q9WV60 whole entry, looked up): as the sequence (P49841 whole entry) above, with T390P, T392A, A400T, T402A counted along it

Regarding `COc1nc(-c2ccnc(NC(=O)C3CC3)c2)sc1C(=O)NCCCNc1c2c(nc3ccccc13)CCCC2`, the half-maximal inhibitory concentration (IC50) (in general, the point on the concentration scale where inhibition reaches its midpoint) amounted to 35000 nM in [1]; 18000 nM in [3]; 66 nM in series [7]; 6.4 nM in series [8]; 260 nM in series [9]. Further, the inhibition entry in series [2] and in series [4] was “Active” each time. For the same compound, the Activity entry in [5] is listed as “Non-Toxic”. The outcome in series [6] was Active.
On to `COc1nc(-c2ccnc(NC(=O)C3CC3)c2)sc1C(=O)NCCCNc1c2c(nc3cc(Cl)ccc13)CCCC2`, for which the IC50 was 290 nM in [10], 3100 nM in series [3], 98 nM in [7] and 3.6 nM in series [8].
With `CCOC(=O)c1sc(-c2ccnc(NC(=O)C3CC3)c2)nc1OCCNc1c2c(nc3ccccc13)CCCC2`, the IC50 in series [3] was 7100 nM; in [7] it was 180 nM; in series [8], 310 nM; in series [9], 610 nM.
Regarding `COc1nc(-c2ccnc(NC(=O)C3CC3)c2)sc1C(=O)NCCNc1c2c(nc3cc(Cl)ccc13)CCCC2`, the IC50 in series [10] came to 410 nM; in series [3] it was 2300 nM; in series [7] it was 63 nM; in series [8] it was 2.1 nM.
For `COc1ccc2nc3c(c(NCCCNC(=O)c4sc(-c5ccnc(NC(=O)C6CC6)c5)nc4OC)c2c1)CCCC3`, the half-maximal inhibitory concentration (IC50) in [10] was 2300 nM; in series [3], 2900 nM; in series [7], 65 nM; in series [8], 38 nM.
Turning to `COC(=O)c1sc(-c2ccnc(NC(=O)C3CC3)c2)nc1OCCNc1c2c(nc3ccccc13)CCCC2`, the 50% inhibitory concentration (IC50) in series [3] is 13000 nM; in series [7] it was 99 nM; in series [8], 130 nM; in series [9], 28 nM. The outcome in series [6] was Active. The Ratio IC50 in series [11] is 4.6.
Take `O=C(O)c1sc(-c2ccnc(NC(=O)C3CC3)c2)nc1OCCNc1c2c(nc3ccccc13)CCCC2`: the IC50 in series [3] amounted to 21000 nM; in series [7], 270 nM; in series [8] it was 580 nM; in series [9], 450 nM.
For `COc1nc(-c2ccnc(NC(=O)C3CC3)c2)sc1C(=O)NCCNc1c2c(nc3ccccc13)CCCC2`, the IC50 in series [3] is 6300 nM; in [7] it was 68 nM; in series [8] it was 6.3 nM; in [9] it was 51 nM.
For `NC(=O)c1sc(-c2ccnc(NC(=O)C3CC3)c2)nc1OCCNc1c2c(nc3ccccc13)CCCC2`, the IC50 in [3] was 19000 nM; in series [7], 34 nM; in [8] it was 300 nM; in series [9] it was 150 nM.
In the case of `COc1ccc2nc3c(c(NCCNC(=O)c4sc(-c5ccnc(NC(=O)C6CC6)c5)nc4OC)c2c1)CCCC3`, the 50% inhibitory concentration (IC50) in series [10] is 2100 nM; in series [3], 8900 nM; in series [7] it was 83 nM; in [8] it was 23 nM.
As to `COc1nc(-c2ccnc(NC(=O)C3CC3)c2)sc1C(=O)NCCCCCCNc1c2c(nc3ccccc13)CCCC2`, the IC50 in [3] was 30000 nM; in series [7], 18 nM; in [8], 22 nM; in series [9], 100 nM. Besides, the result in [6] was Active.

The record behind these values is ChEMBL document CHEMBL4251692, “Dual GSK-3β/AChE Inhibitors as a New Strategy for Multitargeting Anti-Alzheimer's Disease Drug Discovery” (ACS Med Chem Lett, 2018).
